Data taken from patent US9056096B2, “Hyaluronic acid decomposition-promoting factor and inhibitor thereof” (Kao Corporation, priority 2010, dated 2015).

How the values were obtained:
KIAA1199/HEK293 cells = assay: Inhibitor experiment: [3H]HA decomposition in HEK293 cells stably expressing KIAA1199; format: cell-based, human; settings: preliminary treatment with inhibitor 3 hours, then 6 hours with [3H]HA
Description: Cells were cultured in a medium containing [^3H]HA (40,000 dpm/mL) to confluent. […] The medium was eluted with 0.5% NaCl at 0.65 mL/min, and fractions (each 2.55 mL) were collected. The radioactivity of each fraction was measured.
Cells were cultured in a medium containing G418, and stable transformants were selected.
Cells were incubated for 3 hours with an inhibitor at a predetermined concentration and then incubated for 6 hours with [^3H]HA in the presence of the inhibitor.
In order to investigate the hyaluronic acid decomposition mechanism by the mediation of KIAA1199, HEK293 cells (KIAA1199/HEK293), in which KIAA1199 is consistently expressed, were established.

KIAA1199 mRNA [1] = assay: Induction of KIAA1199 mRNA expression in cultured RA synovial cells; format: cell-based, human; settings: inflammatory mediator added to cultured RA synovial cells
Description: (§1) Western blotting was performed through a standard method. In real-time PCR, total RNA was separated by use of RNeasy (Qiagen), and cDNA was synthesized by means of High Capacity cDNA Archive kit (Applied Biosystems, Foster City, Calif.).
Meanwhile, PGE2 (i.e., an inflammatory mediator) and several cytokines such as IL-1, IL-6, and TNF-α are present at high levels in synovial fluid of RA patients. Therefore, whether or not expression of KIAA1199 in RA synovial cells is induced by such an inflammatory mediator was investigated.

[2] = tested on: cultured normal human skin fibroblasts (Detroit551); assay: [3H]HA decomposition assay using cultured normal human skin fibroblasts; format: cell-based; settings: for decomposition of hyaluronic acid by cultured fibroblasts: exogenously added [3H]HA, substance added to the culture
Description: Normal human skin fibroblasts (Detroit 551, ATCC (American Type Culture Collection), HS-27, NHDF) were cultured in an Eagle's minimal essential medium (MEM) (MP Biomedicals, Solon, Ohio) supplemented with essential amino acids, 1 mM sodium pyruvate, and 10% (vol/vol) fetal bovine serum (FBS) (JRH Biosciences, Kansas). HEK293, COS-7 cells, and human synovial fibroblasts (TOYOBO) were maintained in a Dulbecco's modified Eagle's medium (Sigma) containing 10% fetal bovine serum, 100-units/mL penicillin, and 100-μg/mL streptomycin. Culturing was performed at 37° C. in a humidified atmosphere containing 5% CO2.
[^3H]-labeled hyaluronic acid ([^3H]HA) was prepared though a slightly modified method of Underhill, Toole, et al. (C. B. Underhill and B. P. Toole, Binding of hyaluronate to the surface of cultured cells. J. Cell Biol. 82 (1979) 475-84). Specifically, confluent Detroit 551 fibroblasts were incubated with D-[1,6-^3H(N)]glucosamine hydrochloride (10-μCi/mL). A conditioned medium was pooled, and the incubated cells were digested with pronase (0.3 mg/mL) and precipitated in ethanol. The formed pellets were suspended in water and re-precipitated with 1.5% cetylpyridinium chloride and 0.03M NaCl. The thus-formed pellets were dissolved in 0.1% cetylpyridinium chloride and 0.4M NaCl and re-precipitated again in ethanol. The thus-formed pellets were suspended in 5 mM phosphate buffer (pH: 7.5), and the suspension was applied to a Sepharose CL-2B column (10×600 mm) equilibrated with 0.5% NaCl. Vo fractions were collected, and the product was precipitated in ethanol. Finally, the product was dissolved in 5 mM phosphate buffer (pH: 7.5).
Cells were cultured in a medium containing [^3H]HA (40,000 dpm/mL) to confluent. After incubation, the medium was removed and applied to a Sepharose CL-2B column (10×600 mm). The medium was eluted with 0.5% NaCl at 0.65 mL/min, and fractions (each 2.55 mL) were collected. The radioactivity of each fraction was measured.
siRNAs (TT2 cohesive end, non-modified) each having 25 nucleotides with respect to KIAA1199, HYAL2, CD44, and a negative control were purchased from Invitrogen (Carlsbad, Calif.). Each siRNA was incorporated by use of Lipofectamine RNAiMAX (Invitrogen, Carlsbad, Calif.).

KIAA1199 mRNA [3] = settings: stimulation with histamine
Description: as §1, with “Calif.). Real-time PCR was performed through TaqMan (registered trademark) technique and by means of an apparatus ABI Prism 7700 (Applied Biosystems, Foster City, Calif.).” for “Calif.).”

[4] = after stimulation with histamine

Molecule	decomposition of hyaluronic acid in KIAA1199/HEK293 cells (KIAA1199/HEK293 cells)	expression of KIAA1199 mRNA in RA synovial cells (KIAA1199 mRNA [1])	further results
O=C(O)CN(CCN(CC(=O)O)CC(=O)O)CC(=O)O [EDTA]	inhibited	–	–
CCN1C(=O)C=CC1=O [N-ethylmaleimide]	inhibited	–	–
CCCCC[C@H](O)/C=C/[C@H]1[C@H](O)CC(=O)[C@@H]1C/C=C\CCCC(=O)O [PGE2, prostaglandin E2]	–	stimulate expression	–
CO/C1=C\C(C)=C\[C@@H](C)[C@@H](O)[C@@H](C)C/C(C)=C/C=C/[C@H](OC)[C@@H]([C@@H](C)[C@@H](O)[C@H](C)[C@@]2(O)C[C@@H](O)[C@H](C)[C@@H](C(C)C)O2)OC1=O [bafilomycin A1]	inhibited	–	–
CN(C)CCCN1c2ccccc2Sc2ccc(Cl)cc21 [chlorpromazine]	inhibited	–	–
NCCc1c[nH]cn1 [histamine]	–	–	Vmax of hyaluronic acid decomposition by cells [2, 4]: 1,370 μg/10^5 cells/3 days; apparent Km of hyaluronic acid decomposition by cells [2, 4]: 1,500 μg/mL; increase of Vmax of hyaluronic acid decomposition ([2]; after stimulation with histamine, versus unstimulated cells): 3.7 times; decomposition of hyaluronic acid by cultured fibroblasts [2]: up-regulated; increase in expression level of KIAA1199 mRNA (KIAA1199 mRNA [3]): 3.7 times
CC[C@@]1([C@@H]2O[C@@H]([C@H]3O[C@@](O)(CO)[C@H](C)C[C@@H]3C)C[C@@H]2C)CC[C@H]([C@]2(C)CC[C@]3(C[C@H](O)[C@@H](C)[C@@H]([C@@H](C)[C@@H](OC)[C@H](C)C(=O)O)O3)O2)O1 [monensin]	inhibited	–	–
O=c1cc(-c2ccc(O)c(O)c2)oc2c([C@@H]3O[C@H](CO)[C@@H](O)[C@H](O)[C@H]3O)c(O)cc(O)c12 [orientin]	inhibited	–	–
IL-6: cytokine, RA-related inflammatory mediator	–	stimulate expression	–
IL-β: cytokine, RA-related inflammatory mediator (probably IL-1β)	–	stimulate expression	–
TGF-[3]: TGF-β1, down-regulates hyaluronic acid decomposition in fibroblasts	–	–	decomposition of hyaluronic acid by cultured fibroblasts [2]: down-regulated
heparin	–	–	decomposition of hyaluronic acid by cultured fibroblasts [2]: inhibited
IL-1α: cytokine, RA-related inflammatory mediator (protein, UniProt P01583 113-271, looked up) Interleukin-1 alpha: SAPFSFLSNVKYNFMRIIKYEFILNDALNQSIIRANDQYLTAAALHNLDEAVKFDMGAYKSSKDDAKITVILRISKTQLYVTAQDEDQPVLLKEMPEIPKTITGSETNLLFFWETHGTKNYFTSVAHPNLFIATKQDYWVCLAGGPPSITDFQILENQA	–	stimulate expression	–
